Measurements reported in patent publication US4318904A, “Peptide affinity labels for thrombin and other trypsin-like proteases” (Research Corporation, priority 1980, dated 1982).
Like-named read-outs stand apart in the source and are kept apart here. Each block holds one compound with its values, some of them ahead of it. Where no end group is shown, it is not given here. The star is where a group is joined. CH2Cl = ClC*

Columns and labels:
thrombin [1] = target: T1, thrombin (Homo sapiens, UniProt P00734); assay: Inactivation of human thrombin, residual esterase activity; assay type: biochemical; settings: 4.5×10^-7 M thrombin + 2.25×10^-7 M label; theoretical value 50%
thrombin [2] = target: T1, thrombin; assay: Inactivation of human thrombin, fibrinogen clotting assay; assay type: biochemical; settings: 4.5×10^-7 M thrombin + 2.25×10^-7 M label; theoretical value 50%
thrombin [3] = target: T1, thrombin; parameters: Thrombin itself is generated from a pro-enzyme, prothrombin, by the enzymatic action of another proteolytic enzyme, factor Xa; settings: Bajusz et al, page 603; reversible inhibitor; cited from earlier work
thrombin [4] = target: T1, thrombin; parameters: Thrombin itself is generated from a pro-enzyme, prothrombin, by the enzymatic action of another proteolytic enzyme, factor Xa; settings: cited from earlier work; for t1/2, half time for the pseudo-first-order inactivation of thrombin / kapp /[I], apparent first order rate constant for inactivation of thrombin / concentration of affinity label: pH 7.0, 25° C; for Ki / k2 / k2 /Ki: Table IV, ref (a) Kettner and Shaw

inactivation of human thrombin by esterase assay (thrombin [1]): 47%
inactivation of human thrombin by clotting assay (thrombin [2]): 45%
Compound: N=C(N)NCCC[C@H](NC(=O)[C@@H]1CCCN1C(=O)[C@H](N)Cc1ccccc1)C(=O)CCl [D-Phe-Pro-ArgCH2 Cl, D-Phe-Pro-Arg-CH2 Cl.2HCl]

Compound: D-Phe-Pro-Arg-H
Ki (thrombin [3]): 75 nM

Compound: Glu-Gly-ArgCH2 Cl
t1/2, half time for the pseudo-first-order inactivation of thrombin (thrombin [4]; inhibitor 1.0 × 10^-6 M): 31 min
kapp /[I], apparent first order rate constant for inactivation of thrombin / concentration of affinity label (thrombin [4]): 2.20 (min^-1 M^-1) × 10^-4

Compound: Gly-Val-ArgCH2 Cl
Ki (thrombin [4]): 13000 nM
k2 (thrombin [4]): 0.30 min⁻¹
k2 /Ki (thrombin [4]): 383 M⁻¹ s⁻¹
t1/2, half time for the pseudo-first-order inactivation of thrombin (thrombin [4]; inhibitor 2.0 × 10^-6 M): 18 min
kapp /[I], apparent first order rate constant for inactivation of thrombin / concentration of affinity label (thrombin [4]): 1.90 (min^-1 M^-1) × 10^-4

Compound: Ile-Pro-ArgCH2 Cl
t1/2, half time for the pseudo-first-order inactivation of thrombin (thrombin [4]; inhibitor 7.5 × 10^-8 M): 22 min
kapp /[I], apparent first order rate constant for inactivation of thrombin / concentration of affinity label (thrombin [4]): 42.00 (min^-1 M^-1) × 10^-4

Compound: Phe-Ala-ArgCH2 Cl
Ki (thrombin [4]): 2900 nM
k2 (thrombin [4]): 0.26 min⁻¹
k2 /Ki (thrombin [4]): 1500 M⁻¹ s⁻¹

Compound: Phe-Ala-LysCH2 Cl
Ki (thrombin [4]): 37000 nM
k2 (thrombin [4]): 0.34 min⁻¹
k2 /Ki (thrombin [4]): 150 M⁻¹ s⁻¹

Compound: Pro-Gly-ArgCH2 Cl
t1/2, half time for the pseudo-first-order inactivation of thrombin (thrombin [4]; inhibitor 1.0 × 10^-6 M): 57 min
kapp /[I], apparent first order rate constant for inactivation of thrombin / concentration of affinity label (thrombin [4]): 1.20 (min^-1 M^-1) × 10^-4

Compound: Pro-Phe-ArgCH2 Cl
t1/2, half time for the pseudo-first-order inactivation of thrombin (thrombin [4]; inhibitor 5.0 × 10^-5 M): 35 min
kapp /[I], apparent first order rate constant for inactivation of thrombin / concentration of affinity label (thrombin [4]): 0.04 (min^-1 M^-1) × 10^-4

Compound: Val-Ile-Pro-ArgCH2 Cl (VIPR-CH2Cl)
t1/2, half time for the pseudo-first-order inactivation of thrombin (thrombin [4]; inhibitor 7.5 × 10^-8 M): 13 min
kapp /[I], apparent first order rate constant for inactivation of thrombin / concentration of affinity label (thrombin [4]): 73.00 (min^-1 M^-1) × 10^-4

Compound: Val-Pro-ArgCH2 Cl
Ki (thrombin [4]): 670 nM
k2 (thrombin [4]): 0.31 min⁻¹
k2 /Ki (thrombin [4]): 6670 M⁻¹ s⁻¹
t1/2, half time for the pseudo-first-order inactivation of thrombin (thrombin [4]; inhibitor 7.5 × 10^-8 M): 17 min
kapp /[I], apparent first order rate constant for inactivation of thrombin / concentration of affinity label (thrombin [4]): 54.00 (min^-1 M^-1) × 10^-4

Compound: Val-Val-ArgCH2 Cl
t1/2, half time for the pseudo-first-order inactivation of thrombin (thrombin [4]; inhibitor 1.0 × 10^-6 M): 33 min
kapp /[I], apparent first order rate constant for inactivation of thrombin / concentration of affinity label (thrombin [4]): 2.10 (min^-1 M^-1) × 10^-4
